Results published in US20090098050A1, “CALCIUM BINDING PEPTIDES” (THE REGENTS OF THE UNVERSITY OF CALIFORNIA, priority 2005, published 2009).
No end group written: not given here.

Key:
[1] = Preferential binding to carious lesions in teeth (CLSM); set-up: species or system human; settings: labeled peptide, settings optimized per sample
Procedure: FIG. 9: Fluorescence micrographs showing specific binding of DSS peptides and variants to carious lesions in teeth. Adult human teeth were exposed to 12.5 uM 5(6)-carboxyfluorescein-labeled peptide without demineralization, washed extensively, and imaged by CLSM. Microscope and camera settings were optimized separately for each sample. […] White traces on the right side of each panel identify the position of the tooth surface, while arrows indicate the position of the stained lesion.
Sections of human teeth containing obvious carious lesions, which consist of demineralized enamel, were polished and exposed to 5(6)-carboxyfluorescein-labeled DSS peptides and variants using the protocol described in Example 2. The sections were washed extensively and imaged by CLSM using blue laser illumination (λ=488 nm) and a FITC emission filter, with microscope and camera settings adjusted for each sample to optimize the signal detected from each peptide. The images were examined to identify the relative levels of peptide binding in healthy versus carious tissue. […] Given their ability to remineralize at sites of enamel degradation (Example 6), they can also be used to initiate remineralization at sites of enamel degradation such as caries or injury sites without causing inappropriate nucleation on healthy tissue surfaces.

[2] = Binding of fluorescein-labeled peptides to hydroxyapatite nanocrystals (Langmuir isotherm); settings: Langmuir fit; for KA, affinity constant of the peptide for the hydroxyapatite surface: fluorescein-labeled peptide 0-100 μM, 0.3 mg hydroxyapatite, ten minutes
Procedure: FIG. 1: Binding affinities of DSS and DSS variant peptides for hydroxyapatite and tooth surfaces. A-C. Fluorescein-labeled peptides at concentrations ranging from 0-100 μM were incubated with 0.3 mg of hydroxyapatite nanocrystals (specific surface area=100 m^2/g) for ten minutes, followed by removal of the hydroxyapatite by centrifugation. The amount of peptide in the mixture before and after hydroxyapatite removal was determined by Abs480. Isotherms were plotted and fit to the Langmuir equation to extract values for KA, a constant reflecting the affinity of the peptide for the hydroxyapatite surface. D. Sagitally sectioned human teeth were incubated with 12.5 μM 5(6) carboxyfluorescein-labeled 6DSS peptide for ten minutes, followed by rinsing. Peptide binding to tooth surfaces was visualized by Confocal Laser Scanning Microscopy (CLSM) using blue laser illumination (λA=488 nm) and a FITC emission filter. Left side, light colored region: dentin. Right side, dark colored region: enamel.
Four DSS peptides containing two (2DSS, SEQ ID NO:12), four (4DSS, SEQ ID NO:13), six (6DSS, SEQ ID NO:14), or eight(8DSS, SEQ ID NO:15) Asp-Ser-Ser (DSS) repeats were generated. Peptides were labeled with fluorescein, and various concentrations of the labeled peptides (0-100 μM) were mixed with a fixed amount (0.3 mg) of hydroxyapatite nanocrystals having a specific surface area of 100 m^2/g (Berkeley Advanced Biomaterials, Inc.). Samples were incubated for ten minutes, followed by removal of the hydroxyapatite by centrifugation. The amount of peptide in the mixture was measured both before and after hydroxyapatite removal by spectroscopic absorbance at 480 nm (the peak absorbance of the fluorescein label). The amount of peptide bound was calculated by comparing the ratio of the final (Af) and initial (Ai) absorbances to the initial concentration (P0) [Pbound=[…]]. Plots were generated illustrating the amount of peptide bound per m^2 of hydroxyapatite surface area versus concentration of unbound peptide at equilibrium. The resulting isotherms were fit to the Langmuir isotherm (x/m=(KANMaxCeq)/(1+KACeq)) (Calis 1995), which describes the binding activity of a molecule in terms of a combination of binding affinity (KA) and avidity (NMax). KA represents the affinity constant of the peptide for the hydroxyapatite surface. In this equation, x/m represents the molar amount of peptide bound per unit of hydroxyapatite surface area, NMax represents the maximum surface concentration (mol/m^2), and Ceq represents the molar concentration of unbound peptide at equilibrium. The Langmuir isotherm describes the binding of molecules to surfaces with the conditions that 1) all binding sites have the same affinity for the peptide, and 2) the peptide will form a monolayer on the surface but cannot accumulate to higher levels. The excellent fit of the Langmuir isotherm to the experimental data validates these conditions, and these affinity constants were used for comparisons between peptides.

[3] = Tissue specific binding of DSS peptides and variants in human teeth (CLSM); settings: 12.5 μM labeled peptide; for Tissue binding pattern in healthy tooth section: nondemineralized teeth
Procedure: FIG. 8: Fluorescence micrographs showing tissue specificity in the binding of DSS peptides and variants. Adult human teeth were exposed to 12.5 μM 5(6)-carboxyfluorescein-labeled peptide without demineralization, washed extensively, and imaged by CLSM. For each section, multiple scans were collected and assembled in an automated mode to generate panels of images representing an area of 13×13 mm, sufficient in most cases to encompass the whole section. The peptides used for each section are labeled beneath each panel, and within each panel the tooth is oriented with the root toward the top of the image and the crown toward the bottom. Tissue layers are labeled as follows: RTD=Root Tip Dentin; CPD=Circumpulpal Dentin; MD=Mantle Dentin; P=Pulp Cavity Wall; DEJ=Dentin-Enamel Junction; E=Enamel; BE=Basal Enamel; CE=Cortical Enamel; CL=Carious Lesion; PB=Periodontal Bone.
In order to investigate the tissue specificity of DSS peptide binding to tooth tissue, sections of human teeth were exposed to DSS peptides and variants, then imaged by CLSM as described in Example 2. The peptides utilized for these experiments were 8DSS, 8ASS, 8DAA, 8NAA, 4DSS, 4ESS, 4NSS, 4DTT, 4ETT, 4NTT, and 6DSS. Sagittal sections of human teeth extracted during normal clinical practice were polished and then incubated for ten minutes in a solution of the appropriate 5(6) carboxyfluorescein-labeled peptide (12.5 μM) containing 10 mM NaCl and 50 mM HEPES, pH 7.0. Control samples were prepared without peptide. Samples were washed extensively after treatment and imaged by CLSM using blue laser illumination (λ=488 nm) and a FITC emission filter, with identical camera and microscope settings for each sample. For each section, multiple scans were collected and assembled in an automated mode to generate panels of images representing an area of 13×13 mm, sufficient in most cases to encompass the whole section. […] Significant binding was also seen to the edges of the pulp cavity.

| Substance | Specificity of binding to carious lesions versus surrounding healthy enamel [1] | Strength of staining of carious lesions [1] | KA, affinity constant of the peptide for the hydroxyapatite surface [2] | Tissue binding pattern in healthy tooth section [3] | NMax, maximum surface concentration (available binding sites on HA surface) [2] | Binding to fragment of periodontal bone attached to the sample [3] | Binding to carious lesion present in the sample [3] |
| --- | --- | --- | --- | --- | --- | --- | --- |
| 8ASS: eight repeat peptide lacking a charged group at the first position, SEQ. ID NO. 21 (ASSASSASSASSASSASSASSASS; variant DSS eight repeat peptide lacking negatively charged group at first position, 8ASS) | highly specific binding to carious lesions | exceptionally strong staining of carious lesions | 170,000 M^−1 |  |  |  |  |
| 4DSS: peptide containing four Asp-Ser-Ser (DSS) repeats, SEQ ID NO:13 (DSSDSSDSSDSS; calcium binding peptide containing four DSS repeats, 4DSS, (DSS)-4) | highly specific binding to carious lesions | exceptionally strong staining of carious lesions | 94,000 M^−1 | bound primarily to the mantle dentin | 5.8×10^−8 mol/m^2 |  |  |
| 4NTT: four repeat peptide containing more sterically hindered hydroxyl groups at second and third positions, SEQ. ID NO. 18 (NTTNTTNTTNTT; variant DSS four repeat peptide containing more sterically hindered hydroxyl groups at second and third positions, 4NTT) |  |  | 18,000 M^−1 | very low levels of binding to the healthy tooth tissue |  | strong binding |  |
| 4DSPS: partially phosphorylated four repeat DSS peptide, SEQ ID NO:25 (DSSDSSDSSDSS; also: partially phosphorylated, sites not given here) |  |  | 83,000 M^−1 |  | 1.2×10^−7 mol/m^2 |  |  |
| 4ETT: four repeat peptide containing more sterically hindered hydroxyl groups at second and third positions, SEQ. ID NO. 19 (ETTETTETTETT; variant DSS four repeat peptide containing more sterically hindered hydroxyl groups at second and third positions, 4ETT) | highly specific binding to carious lesions |  | 61,000 M^−1 | binding patterns similar to those of 4DSS and 4ESS, though at sharply reduced levels |  |  |  |
| 8DAA: eight repeat peptide lacking hydroxyl groups at the second and third positions, SEQ. ID NO. 22 (DAADAADAADAADAADAADAADAA; variant DSS eight repeat peptide lacking hydroxyl group at seond and third positions, 8DAA) | highly specific binding to carious lesions | exceptionally strong staining of carious lesions | 300,000 M^−1 | primary binding to the root tip dentin and cortical enamel, as well as to the dentin-enamel junction and the pulp cavity wall |  |  |  |
| 4NSS: four repeat peptide lacking a charged group at the first position, SEQ. ID NO. 20 (NSSNSSNSSNSS; variant DSS four repeat peptide lacking negatively charged group at first position, 4NSS) | highly specific binding to carious lesions |  | 41,000 M^−1 |  |  |  |  |
| 2DSS: peptide containing two Asp-Ser-Ser (DSS) repeats, SEQ ID NO:12 (DSSDSS; calcium binding peptide containing two DSS repeats, 2DSS) |  |  | 57,000 M^−1 |  |  |  |  |
| 8NAA: eight repeat peptide lacking hydroxyl groups at the second and third positions, SEQ. ID NO. 23 (NAANAANAANAANAANAANAANAA; variant DSS eight repeat peptide lacking hydroxyl group at seond and third positions, 8NAA) | highly specific binding to carious lesions |  | 20,000 M^−1 | very little binding to any healthy tissue |  |  | did bind somewhat to a carious lesion |
| 4NAA: label printed only in b88, not defined; probably a misprint (NAANAANAANAA; variant DSS four repeat peptide lacking hydroxyl group at seond and third positions, 4NAA) |  | exceptionally strong staining of carious lesions |  |  |  |  |  |
| 4DTT: four repeat peptide containing more sterically hindered hydroxyl groups at second and third positions, SEQ. ID NO. 17 (DTTDTTDTTDTT; variant DSS four repeat peptide containing more sterically hindered hydroxyl groups at second and third positions, 4DTT) |  |  | 161,000 M^−1 | binding patterns similar to those of 4DSS and 4ESS, though at sharply reduced levels |  |  |  |
| 4ESS: four repeat peptide containing a longer sidechain at the first position, SEQ. ID NO. 16 (ESSESSESSESS; variant DSS four repeat peptide containing longer sidechain at first position, 4ESS) | highly specific binding to carious lesions | exceptionally strong staining of carious lesions | 81,000 M^−1 |  |  |  |  |
